Experimental findings from PMC11184554, “Nature-Inspired Gallinamides Are Potent Antischistosomal Agents: Inhibition of the Cathepsin B1 Protease Target and Binding Mode Analysis” (ACS Infectious Diseases, 2024) are described below.

For one test, the system named is recombinant SmCB1. Briefly: Kinetic inhibition assay with recombinant SmCB1 (k2nd). It is filed as biochemical, S. mansoni. To be noted: for decrease in inhibitory potency vs gallinamide A: ratio of k2nd values; for SmCB1 inhibition k2nd: second-order rate constant (kinact/Ki), substrate Cbz–Phe–Arg–AMC, pH 5.5, 37 °C, mean ± SE. As for the experimental part: Gallinamide A and a series of its 18 derivatives were evaluated in vitro as inhibitors of SmCB1 to explore the binding specificities of the subsites in the enzyme’s active site. The gallinamide A inhibitor scaffold can be defined by positions P4 through P1′ (Schechter and Berger nomenclature[37]), which were assigned according to the binding mode analysis (see the crystallographic section below). The substituents R4, R1, and R1′ introduced on the scaffold (Table 2) are numbered according to the respective positions P4, P1, and P1′. The compounds’ second-order rate constants (k2nd) were determined using a kinetic inhibition assay with recombinant SmCB1 and the substrate, Cbz–Phe–Arg–AMC.
Inhibition measurements were performed in duplicate in 96-well microplates (100 μL assay volume) at 37 °C. SmCB1 (40 pM) was added to a mixture of the fluorogenic substrate Cbz–Phe–Arg–AMC (25 μM) and an inhibitor (0–100 μM) in 0.1 M sodium acetate, pH 5.5, containing 2.5 mM dithiothreitol and 0.01% (w/v) BRIJ 35. Substrate hydrolysis was monitored in an Infinite M1000 microplate reader (Tecan) at excitation and emission wavelengths of 360 and 465 nm, respectively, for up to 150 min. An observed first-order rate constant, kobs, was calculated at each inhibitor concentration by fitting the progress curve to the equation P = vi/kobs(1 – exp(−kobst)) + d where P is the product formation, t is the reaction time, vi is the initial velocity, and d is the offset. […] The second-order rate constant, k2nd, (and SE value) was determined by fitting the linear equation kobs = (k2nd[I])/(1 + [S]/Km), where [S] is the substrate concentration, [I] is the inhibitor concentration, and KM is the Michaelis–Menten constant. The KM value determined for SmCB1 was 25 μM. […] To determine IC50 values, SmCB1 (40 pM) was preincubated with the inhibitor (0–100 μM) for 30 min under assay conditions as described above, followed by the addition of the fluorogenic substrate Cbz–Phe–Arg–AMC (20 μM). Substrate hydrolysis was monitored for 30 min in a microplate reader as described above. The IC50 values were determined by nonlinear regression using GraFit software (Erithacus Software).

In test [1] the test system is S. mansoni newly transformed schistosomula (NTS). Briefly: Phenotypic screen with newly transformed schistosomula (NTS). The class given is cell-based. As to the method: The same 19 gallinamides were screened for bioactivity against S. mansoni newly transformed schistosomula (NTS), the postinvasive parasite stage that feeds on host blood.[40] In this primary assay, the NTS were exposed to 1 and 10 μM compounds for 3 days, and the resulting phenotypic responses were graded from 0 through 4, i.e., the least to the most severe (Table 2 and Table S1). […] The effects were more pronounced after 72 h, and when the higher, 10 μM, compound concentration was used (Table S1). […] Also, compared to gallinamide A and its analogs, 3 has an additional N-terminal N-acetamide modification that further reduces bioactivity (Table 2).
Phenotypic screens employed S. mansoni newly transformed schistosomula (NTS) and adults and were carried out as described previously.[18]−[20],[42] NTS were prepared by mechanically transforming infective larvae (cercariae).[40],[42] NTS (200–300 parasites) were incubated in flat-bottomed 96-well plates in 200 μL of Basch Medium 169 containing 5% (v/v) FBS, 100 U mL^–1 penicillin and 100 μg mL^–1 streptomycin (complete Basch medium)[75] at 5% CO2 and 37 °C.[76],[77] Inhibitors were added at final concentrations of 1 and 10 μM, and changes in phenotypes were observed under an inverted microscope every 24 h for up to 72 h.
A constrained nomenclature of “descriptors”[39],[42] was used to record the multiple and dynamic changes in movement, shape, and translucence that the schistosome parasite is capable of (Table S1 for NTS and Table S3 for adults). These descriptors were then converted into an ordinal “severity score” system ranging from 0 (no effect) to 4 (maximum effect), which allows for the relative comparison of compound effects.

The mark [2] stands for this setting: 1 μM compound, 24 h, scale 0 (no effect) to 4 (most severe).
The mark [3] stands for this setting: 1 μM compound, 48 h, scale 0 to 4.
Setting [4] is: 1 μM compound, 72 h, scale 0 to 4.
Setting [5] is: 10 µM compound, 24 h, scale 0 to 4.
The mark [6] stands for this setting: 10 µM compound, 48 h, scale 0 to 4.
[7] abbreviates: 10 µM compound, 72 h, scale 0 to 4.

In the case of `COC1=CC(=O)N(C(=O)/C=C/[C@H](C)NC(=O)[C@H](CC(C)C)NC(=O)[C@H](CC(C)C)OC(=O)[C@H](C(C)C)N(C)C)[C@H]1C` [compound 2], the “decrease in inhibitory potency vs gallinamide A” value (“decrease in inhibitory potency” for short) in the test on recombinant SmCB1 is given as 2 fold. The “SmCB1 inhibition k2nd” value in the test with recombinant SmCB1 was 3334 ± 559 M^–1·s^–1. For the same compound, the schistosomula severity score in test [1] (setting [2]) amounted to 0; in test [1] (setting [3]), 1; in test [1] (setting [4]), 4; in test [1] (setting [5]), 4; in test [1] (setting [6]) it was 4; in test [1] (setting [7]) it was 4.
As for `CCC(C)C(NC(C)=O)C(=O)NC(CC(C)C)C(=O)NC(CC(C)C)C(=O)NC(C)C=CC(=O)N1C(=O)C=C(OC)C1C` (centres unmarked) [compound 3], the “decrease in inhibitory potency” value with recombinant SmCB1 came out at 2.3 fold. Besides, in the test with recombinant SmCB1, the “SmCB1 inhibition k2nd” value turned out to be 2902 ± 172 M^–1·s^–1. In addition, the schistosomula severity score in test [1] (setting [2]) stood at 0; in test [1] (setting [3]), 0; in test [1] (setting [4]) it was 2; in test [1] (setting [5]), 0; in test [1] (setting [6]), 2; in test [1] (setting [7]) it was 2. Also, the schistosomula phenotype descriptors entry is “Dark, R” in test [1] (1 µM compound, 72 h); “Dark, R” in test [1] (10 µM compound, 48 h); “Dark, R” in test [1] (10 µM compound, 72 h).
`CCC(C)C(C(=O)NC(CC(C)C)C(=O)NC(CC(C)C)C(=O)NC(C)C=CC(=O)N1C(=O)C=C(OC)C1C)N(C)C` (centres unmarked) [compound 4]: the “decrease in inhibitory potency” value in the test on recombinant SmCB1 is 2.3 fold. In the test on recombinant SmCB1, the “SmCB1 inhibition k2nd” value was 2894 ± 113 M^–1·s^–1. For the same compound, the schistosomula severity score in test [1] (setting [2]) came out at 0; in test [1] (setting [3]), 0; in test [1] (setting [4]), 4; in test [1] (setting [5]), 1; in test [1] (setting [6]) it was 4; in test [1] (setting [7]) it was 4.
For `C#CCCCCOC1=CC(=O)N(C(=O)C=CC(C)NC(=O)C(CC(C)C)NC(=O)C(CC(C)C)OC(=O)C(C(C)CC)N(C)C)C1C` (centres unmarked) [compound 5], the “decrease in inhibitory potency” value with recombinant SmCB1 is 2.4 fold. In addition, in the test on recombinant SmCB1, the “SmCB1 inhibition k2nd” value came to 2792 ± 360 M^–1·s^–1. Moreover, the schistosomula severity score in test [1] (setting [2]) is listed as 0; in test [1] (setting [3]) it was 4; in test [1] (setting [4]), 4; in test [1] (setting [5]), 1; in test [1] (setting [6]), 4; in test [1] (setting [7]), 4.
Regarding `CCC(C)C(C(=O)OC(CC(C)C)C(=O)NC(CC(C)C)C(=O)NC(C=CC(=O)N1C(=O)C=C(OC)C1Cc1ccccc1)Cc1ccccc1)N(C)C` (centres unmarked) [compound 7], the “improvement of inhibition vs 14” value in the test on recombinant SmCB1 (Phe in R1′ changed from S to R configuration) was 17 fold. The “SmCB1 inhibition k2nd” value with recombinant SmCB1 is 942 ± 50 M^–1·s^–1. Further, the schistosomula severity score in test [1] (setting [2]) was determined as 0; in test [1] (setting [3]), 3; in test [1] (setting [4]), 4; in test [1] (setting [5]) it was 1; in test [1] (setting [6]), 4; in test [1] (setting [7]) it was 4. The schistosomula phenotype descriptors entry in test [1] (1 µM compound, 48 h) was “Dark, R, S”.
In the case of `CCC(C)C(C(=O)OC(CC(C)C)C(=O)NC(CC(C)C)C(=O)NC(C=CC(=O)N1C(=O)C=C(OC)C1C)Cc1ccccc1)N(C)C` (centres unmarked) [compound 8], the “decrease in inhibitory potency” value with recombinant SmCB1 is on record as 7.5 fold. Moreover, in the test with recombinant SmCB1, the “SmCB1 inhibition k2nd” value is 887 ± 46 M^–1·s^–1. Besides, the schistosomula severity score worked out at 1 in test [1] (setting [2]); 4 in test [1] (setting [3]); 4 in test [1] (setting [4]); 3 in test [1] (setting [5]); 4 in test [1] (setting [6]); 4 in test [1] (setting [7]). Also, in test [1] (10 µM compound, 24 h), the schistosomula phenotype descriptors entry is on record as “Dark, R, S”.
